The supplement of paper PMC10307832

Key:
Assay in all cases: relative viability (nuclei count vs DMSO), 5 days (fraction); higher = more cells survive
201T = system: 201T
Method in brief: (§1)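 One day after seeding in 1536-well plates, lung cancer cell lines were dosed by pin tool. Dosing was either single-drug or a fixed anchor-drug dose plus five library-drug doses (not always all listed) in √10 steps. After 5 days, nuclei were stained in one fix-and-stain step and counted on 4× images, and relative viability is the nuclei count of treated wells over that of vehicle wells, given as the median of duplicate plates.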

COR-L23 = system: COR-L23
Method in brief: as §1

EPLC-272H = system: EPLC-272H
Method in brief: as §1

H3255 = system: H3255
Method in brief: as §1

HCC-44 = system: HCC-44
Method in brief: as §1

LOU-NH91 = system: LOU-NH91
Method in brief: as §1

NCI-H1563 = system: NCI-H1563
Method in brief: as §1

NCI-H1650 = system: NCI-H1650
Method in brief: as §1

NCI-H1734 = system: NCI-H1734
Method in brief: as §1

NCI-H1793 = system: NCI-H1793
Method in brief: as §1

NCI-H1993 = system: NCI-H1993
Method in brief: as §1

NCI-H2023 = system: NCI-H2023
Method in brief: as §1

NCI-H2085 = system: NCI-H2085
Method in brief: as §1

NCI-H2170 = system: NCI-H2170
Method in brief: as §1

NCI-H2347 = system: NCI-H2347
Method in brief: as §1

NCI-H2405 = system: NCI-H2405
Method in brief: as §1

NCI-H3122 = system: NCI-H3122
Method in brief: as §1

NCI-H441 = system: NCI-H441
Method in brief: as §1

NCI-H520 = system: NCI-H520
Method in brief: as §1

NCI-H647 = system: NCI-H647
Method in brief: as §1

PC-14 = system: PC-14
Method in brief: as §1

RERF-LC-KJ = system: RERF-LC-KJ
Method in brief: as §1

SW 900 = system: SW 900
Method in brief: as §1

NC(=O)Nc1cc(-c2cccc(F)c2)sc1C(=O)N[C@H]1CCCNC1 [AZD7762] + COc1cccc2cc(-c3nc([C@H]4CC[C@H](C(=O)O)CC4)n4ncnc(N)c34)[nH]c12 [OSI-027] (partner 0.5 µM)
relative viability (201T; first compound 0.01 µM): 0.795 | relative viability (201T; first compound 0.03162 µM): 0.779 | relative viability (201T; first compound 0.1 µM): 0.703 | relative viability (201T; first compound 0.3162 µM): 0.423 | relative viability (201T; first compound 1 µM): 0.254 | relative viability (COR-L23; first compound 0.01 µM): 0.866 | relative viability (COR-L23; first compound 0.03162 µM): 0.866 | relative viability (COR-L23; first compound 0.1 µM): 0.758 | relative viability (COR-L23; first compound 0.3162 µM): 0.711 | relative viability (COR-L23; first compound 1 µM): 0.285 | relative viability (EPLC-272H; first compound 0.01 µM): 0.299 | relative viability (EPLC-272H; first compound 0.03162 µM): 0.332 | relative viability (EPLC-272H; first compound 0.1 µM): 0.271 | relative viability (EPLC-272H; first compound 0.3162 µM): 0.27 | relative viability (EPLC-272H; first compound 1 µM): 0.115 | relative viability (H3255; first compound 0.01 µM): 0.572 | relative viability (H3255; first compound 0.03162 µM): 0.506 | relative viability (H3255; first compound 0.1 µM): 0.534 | relative viability (H3255; first compound 0.3162 µM): 0.629 | relative viability (H3255; first compound 1 µM): 0.607 | relative viability (HCC-44; first compound 0.01 µM): 0.718 | relative viability (HCC-44; first compound 0.03162 µM): 0.579 | relative viability (HCC-44; first compound 0.1 µM): 0.712 | relative viability (HCC-44; first compound 0.3162 µM): 0.65 | relative viability (HCC-44; first compound 1 µM): 0.491 | relative viability (LOU-NH91; first compound 0.01 µM): 0.735 | relative viability (LOU-NH91; first compound 0.03162 µM): 0.749 | relative viability (LOU-NH91; first compound 0.1 µM): 0.692 | relative viability (LOU-NH91; first compound 0.3162 µM): 0.638 | relative viability (LOU-NH91; first compound 1 µM): 0.554 | relative viability (NCI-H1563; first compound 0.01 µM): 0.792 | relative viability (NCI-H1563; first compound 0.03162 µM): 0.781 | relative viability (NCI-H1563; first compound 0.1 µM): 0.748 | relative viability (NCI-H1563; first compound 0.3162 µM): 0.804 | relative viability (NCI-H1563; first compound 1 µM): 0.771 | relative viability (NCI-H1650; first compound 0.01 µM): 0.688 | relative viability (NCI-H1650; first compound 0.03162 µM): 0.638 | relative viability (NCI-H1650; first compound 0.1 µM): 0.708 | relative viability (NCI-H1650; first compound 0.3162 µM): 0.425 | relative viability (NCI-H1650; first compound 1 µM): 0.206 | relative viability (NCI-H1734; first compound 0.01 µM): 0.638 | relative viability (NCI-H1734; first compound 0.03162 µM): 0.704 | relative viability (NCI-H1734; first compound 0.1 µM): 0.642 | relative viability (NCI-H1734; first compound 0.3162 µM): 0.374 | relative viability (NCI-H1734; first compound 1 µM): 0.238 | relative viability (NCI-H1793; first compound 0.01 µM): 0.265 | relative viability (NCI-H1793; first compound 0.03162 µM): 0.268 | relative viability (NCI-H1793; first compound 0.1 µM): 0.308 | relative viability (NCI-H1793; first compound 0.3162 µM): 0.299 | relative viability (NCI-H1793; first compound 1 µM): 0.25 | relative viability (NCI-H1993; first compound 0.01 µM): 0.577 | relative viability (NCI-H1993; first compound 0.03162 µM): 0.591 | relative viability (NCI-H1993; first compound 0.1 µM): 0.58 | relative viability (NCI-H1993; first compound 0.3162 µM): 0.532 | relative viability (NCI-H1993; first compound 1 µM): 0.525 | relative viability (NCI-H2023; first compound 0.01 µM): 0.405 | relative viability (NCI-H2023; first compound 0.03162 µM): 0.331 | relative viability (NCI-H2023; first compound 0.1 µM): 0.216 | relative viability (NCI-H2023; first compound 0.3162 µM): 0.116 | relative viability (NCI-H2023; first compound 1 µM): 0.105 | relative viability (NCI-H2085; first compound 0.01 µM): 0.603 | relative viability (NCI-H2085; first compound 0.03162 µM): 0.871 | relative viability (NCI-H2085; first compound 0.1 µM): 0.836 | relative viability (NCI-H2085; first compound 0.3162 µM): 0.765 | relative viability (NCI-H2085; first compound 1 µM): 0.554 | relative viability (NCI-H2170; first compound 0.01 µM): 0.637 | relative viability (NCI-H2170; first compound 0.03162 µM): 0.734 | relative viability (NCI-H2170; first compound 0.1 µM): 0.807 | relative viability (NCI-H2170; first compound 0.3162 µM): 0.8 | relative viability (NCI-H2170; first compound 1 µM): 0.707 | relative viability (NCI-H2347; first compound 0.01 µM): 0.433 | relative viability (NCI-H2347; first compound 0.03162 µM): 0.529 | relative viability (NCI-H2347; first compound 0.1 µM): 0.412 | relative viability (NCI-H2347; first compound 0.3162 µM): 0.395 | relative viability (NCI-H2347; first compound 1 µM): 0.356 | relative viability (NCI-H2405; first compound 0.01 µM): 0.608 | relative viability (NCI-H2405; first compound 0.03162 µM): 0.676 | relative viability (NCI-H2405; first compound 0.1 µM): 0.623 | relative viability (NCI-H2405; first compound 0.3162 µM): 0.664 | relative viability (NCI-H2405; first compound 1 µM): 0.455 | relative viability (NCI-H3122; first compound 0.01 µM): 1.03 | relative viability (NCI-H3122; first compound 0.03162 µM): 1.1 | relative viability (NCI-H3122; first compound 0.1 µM): 0.995 | relative viability (NCI-H3122; first compound 0.3162 µM): 0.473 | relative viability (NCI-H3122; first compound 1 µM): 0.259 | relative viability (NCI-H441; first compound 0.01 µM): 0.765 | relative viability (NCI-H441; first compound 0.03162 µM): 0.819 | relative viability (NCI-H441; first compound 0.1 µM): 0.944 | relative viability (NCI-H441; first compound 0.3162 µM): 0.799 | relative viability (NCI-H441; first compound 1 µM): 0.59 | relative viability (NCI-H520; first compound 0.01 µM): 0.294 | relative viability (NCI-H520; first compound 0.03162 µM): 0.246 | relative viability (NCI-H520; first compound 0.1 µM): 0.246 | relative viability (NCI-H520; first compound 0.3162 µM): 0.243 | relative viability (NCI-H520; first compound 1 µM): 0.16 | relative viability (NCI-H647; first compound 0.01 µM): 0.656 | relative viability (NCI-H647; first compound 0.03162 µM): 0.55 | relative viability (NCI-H647; first compound 0.1 µM): 0.714 | relative viability (NCI-H647; first compound 0.3162 µM): 0.6 | relative viability (NCI-H647; first compound 1 µM): 0.172 | relative viability (PC-14; first compound 0.01 µM): 0.847 | relative viability (PC-14; first compound 0.03162 µM): 0.816 | relative viability (PC-14; first compound 0.1 µM): 0.734 | relative viability (PC-14; first compound 0.3162 µM): 0.287 | relative viability (PC-14; first compound 1 µM): 0.0799 | relative viability (RERF-LC-KJ; first compound 0.01 µM): 0.587 | relative viability (RERF-LC-KJ; first compound 0.03162 µM): 0.668 | relative viability (RERF-LC-KJ; first compound 0.1 µM): 0.77 | relative viability (RERF-LC-KJ; first compound 0.3162 µM): 0.666 | relative viability (RERF-LC-KJ; first compound 1 µM): 0.499 | relative viability (SW 900; first compound 0.01 µM): 0.609 | relative viability (SW 900; first compound 0.03162 µM): 0.623 | relative viability (SW 900; first compound 0.1 µM): 0.539 | relative viability (SW 900; first compound 0.3162 µM): 0.501 | relative viability (SW 900; first compound 1 µM): 0.263
